target: ACSS2 (Homo sapiens, UniProt Q9NR19); assay: biochemical
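Also: Pyrophosphatase-coupled ACSS2 enzyme assay, 10 nM protein incubated 90 min at 37 °C with ATP, CoA and acetate, released phosphate read by Biomol Green absorbance at 620 nm.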

Chain of ACSS2 (Q9NR19 whole entry): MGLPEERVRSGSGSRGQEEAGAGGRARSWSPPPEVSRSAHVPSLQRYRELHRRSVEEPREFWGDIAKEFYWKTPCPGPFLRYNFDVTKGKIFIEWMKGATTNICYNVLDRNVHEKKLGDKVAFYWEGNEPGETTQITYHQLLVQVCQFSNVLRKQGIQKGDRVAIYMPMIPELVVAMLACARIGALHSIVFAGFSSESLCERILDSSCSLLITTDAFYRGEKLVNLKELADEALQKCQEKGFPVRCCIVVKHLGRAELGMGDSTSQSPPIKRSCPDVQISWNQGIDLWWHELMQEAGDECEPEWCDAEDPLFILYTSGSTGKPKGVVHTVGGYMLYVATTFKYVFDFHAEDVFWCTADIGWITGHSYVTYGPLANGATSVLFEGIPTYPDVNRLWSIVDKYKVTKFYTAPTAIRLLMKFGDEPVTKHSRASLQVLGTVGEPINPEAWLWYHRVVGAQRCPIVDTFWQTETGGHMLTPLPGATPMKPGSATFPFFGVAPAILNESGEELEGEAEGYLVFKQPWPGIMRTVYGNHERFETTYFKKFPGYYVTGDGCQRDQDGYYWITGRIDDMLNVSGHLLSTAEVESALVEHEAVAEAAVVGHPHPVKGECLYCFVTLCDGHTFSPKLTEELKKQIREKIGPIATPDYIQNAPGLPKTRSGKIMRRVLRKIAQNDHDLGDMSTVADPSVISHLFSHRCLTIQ

First: CCc1cccc(NC(=O)C2C(=O)N(c3ccc([N+](=O)[O-])cc3)N=C2C)c1 (stereo not shown) [compound 157]
Second: CCC(F)(F)c1cccc(NC(=O)C2C(=O)N(c3ccc4ccsc4c3)N=C2C)c1 (stereo not shown) [compound 485, 1-(benzo[b]thiophen-6-yl)-N-(3-(1,1-difluoropropyl)phenyl)-3-methyl-5-oxo-4,5-dihydro-1H-pyrazole-4-carboxamide]
The IC50 of the first is higher: 1000 to 100000 nM for the first, 0.01 to 6 nM for the second. The second is the more potent here.

First: CC(F)(F)c1cccc(NC(=O)C2C(=O)N(c3ccc(OC(F)F)cc3)N=C2CS)c1 (stereo not shown) [compound 339]
Second: CC1=NN(c2ccc(OC(F)F)cc2)C(=O)C1C(=O)Nc1cccc(C(F)(F)C2CC2)c1 (stereo not shown) [compound 481, N-(3-(cyclopropyldifluoromethyl)phenyl)-1-(4-(difluoromethoxy)phenyl)-3-methyl-5-oxo-4,5-dihydro-1H-pyrazole-4-carboxamide]
The IC50 of the first is higher: 100 to 1000 nM for the first, 0.01 to 6 nM for the second. The second is the more potent here.

`COc1cccc(Cc2cc(-c3cccnc3)cc(N3N=C(C)C(C(=O)Nc4cccc(C(C)(F)F)c4)C3=O)c2)c1` (stereo not shown) [compound 461] and `COc1ccccc1Cc1cc(-c2cccnc2)cc(N2N=C(C)C(C(=O)Nc3cccc(C(C)(F)F)c3)C2=O)c1` (stereo not shown) [compound 466] fall in the same range of IC50: 6 to 100 nM for the first, 6 to 100 nM for the second.

`CCC(F)(F)c1cccc(NC(=O)C2C(=O)N(c3ccc4ccn(C)c4c3)N=C2C)c1` (stereo not shown) [compound 462, N-[3-(1,1-difluoropropyl)phenyl]-3-methyl-1-(1-methylindol-6-yl)-5-oxo-4H-pyrazole-4-carboxamide] and `CCCC(=O)n1ccc2ccc(N3N=C(C)C(C(=O)Nc4cccc(C(F)(F)CC)c4)C3=O)cc21` (stereo not shown) [compound 478, 1-(1-butanoylindol-6-yl)-N-[3-(1,1-difluoropropyl)phenyl]-3-methyl-5-oxo-4H-pyrazole-4-carboxamide] fall in the same range of IC50: 0.01 to 6 nM for the first, 0.01 to 6 nM for the second.

First: CCC(F)(F)c1cccc(NC(=O)C2C(=O)N(c3ccc4ccn(Cc5ccccc5)c4c3)N=C2C)c1 (stereo not shown) [compound 463, 1-(1-benzylindol-6-yl)-N-[3-(1,1-difluoropropyl)phenyl]-3-methyl-5-oxo-4H-pyrazole-4-carboxamide]
Second: CCC(F)(F)c1cccc(NC(=O)C2C(=O)N(c3ccc4ccn(CCc5ccccc5)c4c3)N=C2C)c1 (stereo not shown) [compound 477, N-[3-(1,1-difluoropropyl)phenyl]-3-methyl-5-oxo-1-[1-(2-phenylethyl)indol-6-yl]-4H-pyrazole-4-carboxamide]
The IC50 of the first is lower: 0.01 to 6 nM for the first, 6 to 100 nM for the second.

First: CC1=NN(c2ccc(OC(F)F)cn2)C(=O)C1C(=O)Nc1cccc(C(F)(F)C2CC2)c1 (stereo not shown) [compound 464, N-(3-(cyclopropyldifluoromethyl)phenyl)-1-(5-(difluoromethoxy)pyridin-2-yl)-3-methyl-5-oxo-4,5-dihydro-1H-pyrazole-4-carboxamide]
Second: CC1=NN(c2ccc(OC(F)F)cc2)C(=O)C1C(=O)Nc1cccc(C(F)(F)C2CCCC2)c1 (stereo not shown) [compound 470, N-(3-(cyclopentyldifluoromethyl)phenyl)-1-(4-(difluoromethoxy)phenyl)-3-methyl-5-oxo-4,5-dihydro-1H-pyrazole-4-carboxamide]
The IC50 of the first is lower: 0.01 to 6 nM for the first, 100 to 1000 nM for the second. The first is the more potent here.

`CC1=NN(c2cc(-c3cccnc3)cc(-c3cccc4[nH]ccc34)c2)C(=O)C1C(=O)Nc1cccc(C(C)(F)F)c1` (stereo not shown) [compound 465] and `CC1=NN(c2cc(-c3cccnc3)cc(-c3ccc4cc[nH]c4c3)c2)C(=O)C1C(=O)Nc1cccc(C(C)(F)F)c1` (stereo not shown) [compound 473] fall in the same range of IC50: 6 to 100 nM for the first, 6 to 100 nM for the second.

First: COc1ccccc1Cc1cc(-c2ccccc2)cc(N2N=C(C)C(C(=O)Nc3cccc(C(C)(F)F)c3)C2=O)c1 (stereo not shown) [compound 467]
Second: CCC(F)(F)c1cccc(NC(=O)C2C(=O)N(c3ccc4ccn(-c5ccccc5)c4c3)N=C2C)c1 (stereo not shown) [compound 472, N-[3-(1,1-difluoropropyl)phenyl]-3-methyl-5-oxo-1-(1-phenylindol-6-yl)-4H-pyrazole-4-carboxamide]
The IC50 of the first is higher: 6 to 100 nM for the first, 0.01 to 6 nM for the second.

`CC1=NN(c2cc(Br)cc(I)c2)C(=O)C1C(=O)Nc1cccc(C(C)(F)F)c1` (stereo not shown) [compound 468] and `CCC(F)(F)c1cccc(NC(=O)C2C(=O)N(c3ccc4cccnc4c3)N=C2C)c1` (stereo not shown) [compound 474, N-(3-(1,1-difluoropropyl)phenyl)-3-methyl-5-oxo-1-(quinolin-7-yl)-4,5-dihydro-1H-pyrazole-4-carboxamide] fall in the same range of IC50: 0.01 to 6 nM for the first, 0.01 to 6 nM for the second.

First: CON(C)C(=O)C(F)(F)c1cccc(NC(=O)C2C(=O)N(c3ccc(OC(F)F)c(-c4ccccn4)c3)N=C2C)c1 (stereo not shown) [compound 471, N-(3-(1,1-difluoro-2-(methoxy(methyl)amino)-2-oxoethyl)phenyl)-1-(4-(difluoromethoxy)-3-(pyridin-2-yl)phenyl)-3-methyl-5-oxo-4,5-dihydro-1H-pyrazole-4-carboxamide]
Second: CCC(F)(F)c1cccc(NC(=O)C2C(=O)N(c3ccc4ccn(C(=O)c5ccccc5)c4c3)N=C2C)c1 (stereo not shown) [compound 475, 1-(1-benzoylindol-6-yl)-N-[3-(1,1-difluoropropyl)phenyl]-3-methyl-5-oxo-4H-pyrazole-4-carboxamide]
The IC50 of the first is higher: 100 to 1000 nM for the first, 0.01 to 6 nM for the second. The second is the more potent here.

`CCC(F)(F)c1cccc(NC(=O)C2C(=O)N(c3ccc4ccn(S(=O)(=O)c5ccccc5)c4c3)N=C2C)c1` (stereo not shown) [compound 476, N-(3-(1,1-difluoropropyl)phenyl)-3-methyl-5-oxo-1-(1-(phenylsulfonyl)-1H-indol-6-yl)-4,5-dihydro-1H-pyrazole-4-carboxamide] and `CCC(F)(F)c1cccc(NC(=O)C2C(=O)N(c3ccc4ccn(C(=O)c5ccccc5C)c4c3)N=C2C)c1` (stereo not shown) [compound 479] fall in the same range of IC50: 0.01 to 6 nM for the first, 0.01 to 6 nM for the second.

First: CCC(F)(F)c1cccc(NC(=O)C2C(=O)N(c3ccc4ccn(C(=O)c5ccc(C)cc5)c4c3)N=C2C)c1 (stereo not shown) [compound 480, N-[3-(1,1-difluoropropyl)phenyl]-3-methyl-1-[1-(4-methylbenzoyl)indol-6-yl]-5-oxo-4H-pyrazole-4-carboxamide]
Second: CCC(F)(F)c1cccc(NC(=O)C2C(=O)N(c3ccc4ccn(C(=O)c5ccc(O)cc5)c4c3)N=C2C)c1 (stereo not shown) [compound 482, N-(3-(1,1-difluoropropyl)phenyl)-1-(1-(4-hydroxybenzoyl)-1H-indol-6-yl)-3-methyl-5-oxo-4,5-dihydro-1H-pyrazole-4-carboxamide]
The IC50 of the first is higher: 6 to 100 nM for the first, 0.01 to 6 nM for the second. The second is the more potent here.

`CCC(F)(F)c1cccc(NC(=O)C2C(=O)N(c3ccc4ccn(C(=O)c5cccc(C)c5)c4c3)N=C2C)c1` (stereo not shown) [compound 483, N-[3-(1,1-difluoropropyl)phenyl]-3-methyl-1-[1-(3-methylbenzoyl)indol-6-yl]-5-oxo-4H-pyrazole-4-carboxamide] and `CCC(F)(F)c1cccc(NC(=O)C2C(=O)N(c3ccc4cnn(S(=O)(=O)c5ccc(C)cc5)c4c3)N=C2C)c1` (stereo not shown) [compound 487, N-[3-(1,1-difluoropropyl)phenyl]-3-methyl-5-oxo-1-[1-(p-tolylsulfonyl)indazol-6-yl]-4H-pyrazole-4-carboxamide] fall in the same range of IC50: 6 to 100 nM for the first, 6 to 100 nM for the second.

First: CCC(F)(F)c1ccnc(NC(=O)C2C(=O)N(c3ccc(OC(F)F)cc3)N=C2C)c1 (stereo not shown) [compound 484, 1-(4-(difluoromethoxy)phenyl)-N-(4-(1,1-difluoropropyl)pyridin-2-yl)-3-methyl-5-oxo-4,5-dihydro-1H-pyrazole-4-carboxamide]
Second: CCC(F)(F)c1cccc(NC(=O)C2C(=O)N(c3ccc(OC(F)F)cc3)N=C2C)n1 (stereo not shown) [compound 486, 1-(4-(difluoromethoxy)phenyl)-N-(6-(1,1-difluoropropyl)pyridin-2-yl)-3-methyl-5-oxo-4,5-dihydro-1H-pyrazole-4-carboxamide]
The IC50 of the first is higher: 6 to 100 nM for the first, 0.01 to 6 nM for the second. The second is the more potent here.
